Patent US7749728B2, “Method and system for measuring the penetration of drugs and other substances into tissue” (Cabenda Pharmaceutical Research Limited, priority 2003, dated 2010)

Key:
HCT-116 MCCs [1] = test: Fluorescence based evaluation of anthracycline penetration in MCCs; type: cell-based, human; conditions: immediately after 1-h, 10 µM drug exposure
Protocol: MCCs 16 were exposed to anthracyclines from one exposed side 18 using a polyarcylate apparatus 22 (FIG. 2) designed such that the bottom of each insert 10 is clamped against a flat block 24 of apparatus 22 with a layer of Parafilm (American National Can, Chicago, Ill., USA) sandwiched in between to ensure a complete seal. Each MCC 16 was exposed to a 7.5 ml stirred reservoir 28 kept under controlled gassing and temperature. A silicone O-ring 34 was used to seal the gap between the MCC 16 and the orifice in the reservoir 28. […] After 1-hour drug exposure, the reservoirs 28 were rinsed twice with fresh media. […]
The imaging system consisted of a flurouresence microscope (Zeiss III RS, Oberkochen, Germany), a cooled, monochrome CCD video camera (model 4922, Cohu, San Diego, Calif., USA), frame grabber (Scion, Frederick, Md., USA), a custom built motorized x-y stage and customized NIH-Image software (public domain program developed at the U.S. National Institutes of Health) running on a G4 Macintosh computer. […] For drug fluorescence visualization, MCCs were imaged using unmounted cryosections 1-hour after sectioning using a 510-555 nm excitation filter and a 575-640 nm emission filter.
Using the NIH-Image software application and user supplied algorithms, digital images of BrdUrd staining and drug fluorescence within MCC cryosections were analyzed in the following manner. […]

cells = conditions: uptake rate vs DOX; cited from earlier work
[2] = weak bases; cited from earlier work
HCT-116 MCCs [3] = test: MCC penetration assay, effect-based (BrdUrd S-phase labeling after exposure from one side); type: cell-based, human; conditions: for decrease in drug exposure seen by cells on the far side relative to the near side / trend of BrdUrd labeling with drug concentration: 1 day after 1-h exposure; for decrease in drug exposure seen by cells on the far side relative to the near side: near-side concentration matching the effect of 10 μM on the far side; for trend of BrdUrd labeling with drug concentration: first 30 μm of tissue
Protocol: Standard tissue culture inserts 10 (CM 12 mm, pore size 0.4 μm, Millipore, Nepean, ON, Canada) were coated with 150 μl collagen (rat tail type I, Sigma), dissolved in 0.01 M HCl and diluted 1:4 with 60% Ethanol to 0.75 mg/ml, and allowed to dry over night. HCT-116, 0.75×10^6 in 0.5 ml growth media, were then added to the inserts 10 and incubated for 15 hours to allow the cells to attach. The cultures 16 were then incubated for 2 days in custom built growth vessels 21 (FIG. 1(b)) to form multilayered cell cultures (MCCs) 16 which are ˜150 μm in thickness. Each growth vessel 21 includes a frame 23 that held the inserts 10 completely immersed in 130 ml of stirred media (700 rpm, 25 mm stir bar) under continual gassing (5% CO2, balance air) at 37° C. The MCCs 16 were grown in batches of 8 cultures of which 6 were treated with drug and 2 were kept as untreated controls.
MCCs 16 were exposed to anthracyclines from one exposed side 18 using a polyarcylate apparatus 22 (FIG. 2) designed such that the bottom of each insert 10 is clamped against a flat block 24 of apparatus 22 with a layer of Parafilm (American National Can, Chicago, Ill., USA) sandwiched in between to ensure a complete seal. Each MCC 16 was exposed to a 7.5 ml stirred reservoir 28 kept under controlled gassing and temperature. A silicone O-ring 34 was used to seal the gap between the MCC 16 and the orifice in the reservoir 28. Once placed in the apparatus 22, MCCs 16 were allowed to equilibrate for 45 minutes, drug was then added to the growth medium at concentrations of 0.3, 1, 3 and 10 μM. After 1-hour drug exposure, the reservoirs 28 were rinsed twice with fresh media. MCCs 16 were then incubated for a second hour prior to removal from the apparatus 22 to allow initial drug wash out from the exposed side 18 only. MCCs 16 were then removed, rinsed in fresh media three times for 15 seconds and placed in a growth vessel 21 containing 2 untreated control MCCs 16. Media was replaced at 1 and 4 hours following return to the growth vessel 21, to reduce residual drug levels. Incubation with control MCCs 16 ruled out the possibility that drug wash out into the media from the exposed sides 18 of the MCCs 16 was affecting results. MCCs 16 were left for 1 or 3 days from the time of beginning drug exposure to allow manifestation of drug effect. Following this, 100 μM BrdUrd (5-bromo-2-deoxyuridine, Sigma Chemical, Oakville, ON, Canada) was added to the media and cultures incubated for 4 hours to label S-phase cells. MCCs 16 were then removed, frozen in O.C.T. medium (Tissue-TEK, Torrance, Calif., USA) and stored at −80° C. until sectioning.
MCC cryosections (10 μm) were air dried for 24 hours and then fixed in a 1:1 mixture of acetone-methanol for 10 minutes at room temperature. Slides were immediately transferred to distilled water for 10 minutes and then treated with 2 M HCl at room temperature for 1 hour followed by neutralization for 5 minutes in 0.1 M Sodium Borate. Slides were then washed in distilled water and transferred to a PBS (phosphate buffered saline) bath. Subsequent steps were each followed by a 5 minute wash in PBS. BrdUrd incorporated into DNA was detected using a 1:200 dilution of monoclonal mouse anti-BrdUrd (clone BU33, Sigma) followed by 1:100 dilution of anti-mouse peroxidase conjugate antibody (Sigma) and 1:10 dilution of metal enhanced DAB substrate (Pierce, Rockford, Ill.). Slides were then counterstained with haematoxylin, dehydrated and mounted using Permount (Fisher Scientific, Fair Lawn, N.J., USA).
The imaging system consisted of a flurouresence microscope (Zeiss III RS, Oberkochen, Germany), a cooled, monochrome CCD video camera (model 4922, Cohu, San Diego, Calif., USA), frame grabber (Scion, Frederick, Md., USA), a custom built motorized x-y stage and customized NIH-Image software (public domain program developed at the U.S. National Institutes of Health) running on a G4 Macintosh computer. […]

[4] = test system: V79 multicellular spheroids; conditions: ~3.5 μM×h exposure, 24 hours in drug free medium before disaggregation; cited from earlier work
[5] = test system: multi-layered cell culture; test: Example 1: BrdUrd labeling in multi-layered cell culture exposed from one side; type: cell-based; conditions: one hour exposure from one side, 24 hours in fresh media; 5, 10 and 100 μM
Protocol: FIGS. 5 and 6 illustrate test results relating to a multi-layered cell culture 16 exposed to the anthracycline doxorubicin (DOX) (i.e. the test material). Cultures 16 were exposed to doxorubicin (at differing concentrations) from one side 18 only for one hour and then incubated for 24 hours in fresh media. Cultures 16 were then exposed to bromodeoxyuridine (BrdUrd) for two hours to label proliferating cells. BrdUrd is a thymidine analogue that is incorporated into DNA during the S phase of the cell cycle and is therefore an effective marker of cellular proliferation. Following BrdUrd exposure, cultures 16 were frozen and cyrosections taken from them. Cryosections were then immunostained to detect BrdUrd labeled S-phase cells. FIG. 6 illustrates the distribution of BrdUrd-labelled cells as a function of position within the cultures. The results clearly indicate that tissue penetration limits doxorubicin effectiveness.

SMILES | fluorescence level on the near side relative to DOX (HCT-116 MCCs [1]) [times] | rate of entering cells relative to DOX (cells) | pKa [2] | decrease in drug exposure seen by cells on the far side relative to the near side (HCT-116 MCCs [3]) | trend of BrdUrd labeling with drug concentration (HCT-116 MCCs [3]) | surviving fraction, 130 μm into the tissue [4] | surviving fraction, exposed outer layers [4] | effect on proliferating cells as a function of position within the culture [5] | concentration at which an equal effect is exerted on either edge of the MCC (HCT-116 MCCs [3]; 1 hour exposure at 0.3, 1, 3 and 10 μM, 1 day incubation) [µM]
COc1cccc2c1C(=O)c1c(O)c3c(c(O)c1C2=O)C[C@@](O)(C(C)=O)C[C@@H]3O[C@H]1C[C@H](N)[C@H](O)[C@H](C)O1 [DAU, daunorubicin] | ~7 | 3-10 times | ~8.3 | ~30 fold | decreasing labeling with increasing drug concentration |  |  |  | 
COc1cccc2c1C(=O)c1c(O)c3c(c(O)c1C2=O)C[C@@](O)(C(=O)CO)C[C@@H]3O[C@H]1C[C@H](N)[C@H](O)[C@H](C)O1 [DOX, doxorubicin] |  |  | ~8.3 | ~12 fold | decreasing labeling with increasing drug concentration | ~0.6 | ~0.2 | at low concentrations doxorubicin only affects cells close to the site of exposure | 
COc1cccc2c1C(=O)c1c(O)c3c(c(O)c1C2=O)C[C@@](O)(C(=O)CO)C[C@@H]3O[C@H]1C[C@H](N)[C@@H](O)[C@H](C)O1 [EPI, epirubicin] | ~1.5 | approximately twice | ~8.1 | ~10 fold | decreasing labeling with increasing drug concentration |  |  |  | 10
O=C1c2c(O)ccc(O)c2C(=O)c2c(NCCNCCO)ccc(NCCNCCO)c21 [MIT, mitoxantrone] |  |  | ~8.3 | greater than 30 fold | increase in labeling on the near side with increasing drug concentration |  |  |  | 
